{
  "source": "patent US8779235B2",
  "about": "“Engineering single-gene-controlled staygreen potential into plants” (Pioneer Hi-Bred International, Inc., priority 2003, dated 2014)",
  "assay_type_in_all_cases": "in vivo, maize",
  "key": {"acs6/acs6 plants [1]": {"system": "acs6/acs6 plants", "experiment": "Western analysis for Rubisco in leaves", "experimental": "(§1) FIG. 20 Panel A illustrates chlorophyll data, Panel B soluble protein, and Panel C Rubisco expression. The level of chlorophyll a+b (Panel A) and soluble protein (Panel B) was measured in the third oldest leaf (Leaf 3), sixth oldest leaf (Leaf 6), and ninth oldest leaf (Leaf 9) of adult wild-type (i.e., ACS6/ACS6), acs21acs2, and acs61acs6 plants following dark treatment for 7 days. Plants were watered daily. Additional acs61acs6 plants were watered daily with 100 μM ACC during the treatment. acs61acs6 leaves watered with 100 μM ACC but kept unsheathed are also shown. The average and standard deviation of leaves from three individual plants is shown. (Panel C) Western analysis of the same leaves was performed using rice anti-Rubisco antiserum. Soluble protein from leaf samples of equal fresh weight was used.\nB73 leaves were collected at the indicated times and ground in liquid nitrogen to a fine powder. One ml of extraction buffer [20 mM HEPES (pH 7.6), 100 mM KCl, 10% glycerol, 1 mM PMSF] was added to approximately 0.1 g frozen powder and mixed thoroughly. Cell debris was pelleted by centrifugation at 10,000 rpm for 10 min and the protein concentration determined as described (Bradford, 1976). […] The blots were washed twice with TPBS and the signal detected typically between 1 to 15 min using chemiluminescence (Amersham Corp). […]"}, "acs6/acs6 plants [2]": {"system": "acs6/acs6 plants", "experiment": "chlorophyll a+b level in leaves after 7 day dark treatment", "experimental": "as §1\nLeaves were frozen in liquid nitrogen and ground to a fine powder. Samples of approximately 0.1 g were removed to a 1.5 ml tube and weighed. Chlorophyll was extracted 5× with 1 ml (or 0.8 ml) of 80% acetone. Individual extractions were combined and the final volume adjusted to 10 ml (or 15 ml) with additional 80% acetone. Chlorophyll content (a+b) was determined spectrophotometrically according to the methods of Wellburn (1994). […]"}, "acs6/acs6 plants [3]": {"system": "acs6/acs6 plants", "experiment": "total soluble leaf protein after 7 day dark treatment", "conditions": "watered with 100 μM ACC", "experimental": "as §1\nFor total protein isolation, leaves of B73 or mutant plants were collected at the indicated times, quick-frozen in liquid nitrogen and ground to a fine powder. […] Samples were centrifuged 10 min at 10,000 rpm, the supernatant removed to a new tube and the concentration determined spectrophotometrically according to the methods of Bradford (1976). See, Bradford M M (1976) A rapid and sensitive method for the quantitation of microgram quantities of protein utilizing the principle of protein-dye binding. […]"}, "acs6/acs6 plants [4]": {"system": "acs6/acs6 plants", "experiment": "dark-induced senescence of sheathed leaves, complementation of the acs6 mutant by exogenous ACC", "experimental": "To examine if exogenous ACC could complement the acs6 mutant and reverse its staygreen phenotype, the third oldest, sixth, and ninth leaf from ACS6/ACS6, acs2/acs2, and acs6/acs6 plants were subject to dark-induced senescence at 20 DAP by covering them with sheaths for 7 days. All leaves were fully green at the onset of the experiment and remained attached to the plant. acs6/acs6 plants were watered daily with water or 100 μM ACC for 7 days. Following 7 days, dark-induced senescence had initiated in wild-type (i.e., ASC6/ASC6) leaves although it had not progressed to the extent observed following a 2 week dark treatment. […] Dark-induced senescence was also observed in leaf 3 of the acs2 homozygous mutant although it was less pronounced than that observed in the corresponding wild-type leaves."}},
  "data": [
    {"smiles": "NC1(C(=O)O)CC1", "note": "[ACC, 1-aminocyclopropane-1-carboxylic acid]", "values": [
      {"measurement": "loss of Rubisco", "setting": "acs6/acs6 plants [1]; ACC-treated acs6 leaves that remained in the light", "value": "No loss of Rubisco was observed"},
      {"measurement": "loss of Rubisco", "setting": "acs6/acs6 plants [1]; dark-treated acs6 leaves watered with 100 μM ACC", "value": "lost an amount of Rubisco similar to that of dark-treated B73 leaves"},
      {"measurement": "retention of chlorophyll a+b compared with wild-type leaves", "setting": "acs6/acs6 plants [2]; acs6 leaves, 7 day dark treatment, watered with 100 μM ACC", "value": "did not do so when watered with 100 μM ACC"},
      {"measurement": "loss of chlorophyll", "setting": "acs6/acs6 plants [2]; unsheathed leaves of acs6 mutants watered with ACC", "value": "chlorophyll was not lost"},
      {"measurement": "retention of total soluble leaf protein compared with wild-type leaves", "setting": "acs6/acs6 plants [3]", "value": "did not do so when watered with 100 μM ACC"},
      {"measurement": "senescence of leaves that were not sheathed (visual)", "setting": "acs6/acs6 plants [4]; acs6 leaves not sheathed, plants watered daily with 100 μM ACC for 7 days", "value": "did not affect acs6 leaves that were not sheathed"},
      {"measurement": "dark-induced senescence (visual)", "setting": "acs6/acs6 plants [4]; acs6 leaves sheathed 7 days at 20 DAP, plants watered daily with 100 μM ACC", "value": "dark-induced senescence similar to that of wild-type leaves was observed"}
    ]}
  ]
}
